Source: ChEMBL document CHEMBL1126081, “Active conformation of a tumor promoter, teleocidin. A molecular dynamics study” (1992)

Tested on: HL-60
Experiment: Dose inducing HL-60 cell adhesion related to skin tumor promotion.
Type: functional, Homo sapiens

SMILES	ED50 [M l-1]
C[C@H]1C(=O)N[C@H](CO)Cc2c[nH]c3cccc(c23)N1C (racemic)	3.7e-06
CN1c2cccc3[nH]cc(c23)C[C@@H](CO)NC(=O)[C@@H]1C(C)(C)C (racemic)	1.1e-07
CN1CC(=O)N[C@H](CO)Cc2c[nH]c3cccc1c23 (racemic)	3.9e-05
